Reference: publication PMC11857663, “Geliboluols A–D: Kaurane-Type Diterpenoids from the Marine-Derived Rare Actinomycete Actinomadura geliboluensis” (Marine Drugs, 2025)

Legend:
Format in all cases: cell-based
MDA-MB-231 (breast) = assay: Sulforhodamine B (SRB) cytotoxicity assay, MDA-MB-231; details: Homo sapiens; MDA-MB-231, SRB assay, 48 h; read-out: Growth inhibition 50% (GI50) MDA-MB-231
Protocol: (§1) Compounds 1–5 were further evaluated for their cytotoxicity against six solid cancer cell lines and a normal cell line: ACHN (renal), MDA-MB-231 (breast), PC-3 (prostate), NUGC-3 (stomach), NCI-H23 (lung), HCT-15 (colon), and MRC-9 (lung fibroblast, normal cell line). […] Additionally, compounds 1–5 were evaluated for their antimicrobial properties by applying the broth microdilution method, described by the Clinical and Laboratory Standards Institute, against three Gram-positive bacteria, Bacillus subtilis (KCTC 1021), Micrococcus luteus (KCTC 1915), and Staphylococcus aureus (KCTC 1927), and three Gram-negative bacteria, Escherichia coli (KCTC 2441), Salmonella enterica serovar Typhimurium (KCTC 2515), and Klebsiella pneumoniae (KCTC 2690).
(§2) The cytotoxicity test was conducted with CTG luminescent cell viability and SRB assay according to the published procedures. Briefly, blood cancer cell lines and a normal cell line were obtained from the American Type Culture Collection (Manassas, VA, USA) (HL-60: acute myelogenous leukemia, Raji: Burkitt’s lymphoma, NALM6 C. G5: B-cell acute lymphocytic leukemia, K562: chronic myelogenous leukemia, U266: multiple myeloma, and RPMI-1788: B lymphocytes) and the DSMZ-German Collection of Microorganisms and Cell Cultures (WSU-DLCL2: diffuse large B-cell lymphoma and RPMI-8402: T-cell acute lymphocytic leukemia). The cell lines were incubated in RPMI 1640 supplemented with 10% fetal bovine serum, penicillin (100 IU/mL), and streptomycin (100 µg/mL) at 37 °C under a humidified atmosphere of 5% CO2. The cells with a passage number between 8 and 12 were used. The cell lines were prepared in an opaque-walled 96-well plate (8 × 10^3 cells/well), and the compounds (1–5 and doxorubicin as a positive control) with 0.1% DMSO were added to each well and incubated for 48 h. The cell cultures were then treated with 100 µL of CellTiter-Glo Reagent (Promega, Madison, WI, USA) and kept for 10 min to acquire a luminescence signal. Luminescence measurements were performed with the GloMax-Multi Detection System (Promega, Madison, WI, USA). The solid cancer cell lines and the normal cell line were obtained from the American Type Culture Collection (Manassas, VA, USA) (ACHN: renal, MDA-MB-231: breast, PC-3: prostate, NCI-H23: lung, HCT-15: colon, and MRC-9: lung fibroblast) and the Japanese Cancer Research Resources Bank (JCRB) (NUGC-3: stomach). The cell lines were incubated in RPMI 1640 supplemented with 10% fetal bovine serum, penicillin (100 IU/mL), and streptomycin (100 µg/mL) at 37 °C under a humidified atmosphere of 5% CO2. The cells with a passage number between 8 and 12 were used. The cells were then prepared in a 96-well plate (8 × 10^3 cells/well), and the compounds (1–5 and adriamycin as a positive control) with 0.1% DMSO were added to each well. After incubation for 48 h, the cell cultures were fixed using 50% trichloroacetic acid ([…]) and were dyed with 0.4% SRB in 1% acetic acid. Unbound dye was washed using 1% acetic acid and protein-bound dye was collected with 10 mM Tris base (pH 10.5) to measure optical density. Absorbance was measured at 540 nm with a VersaMax microplate reader (Molecular Devices, Sunnyvale, CA, USA) and GI50 values were calculated by GraphPad Prism 4.0 (GraphPad, San Diego, CA, USA).

[1] = system: RPMI-8402 (T-cell acute lymphocytic leukemia, T-ALL); assay: CellTiter-Glo (CTG) cytotoxicity assay, RPMI-8402; details: Homo sapiens; RPMI-8402, CTG assay, 48 h; read-out: Growth inhibition 50% (GI50) RPMI-8402
Protocol: (§3) Compounds 1–5 were evaluated for their cytotoxicity against seven blood cancer cell lines, the most common cancer types in Korea, along with a normal cell line: HL-60 (acute myelogenous leukemia, AML), Raji (Burkitt’s lymphoma), WSU-DLCL2 (diffuse large B-cell lymphoma, DLBCL), NALM6 C. G5 (B-cell acute lymphocytic leukemia, B-ALL), K562 (chronic myelogenous leukemia, CML), RPMI-8402 (T-cell acute lymphocytic leukemia, T-ALL), U266 (multiple myeloma), and RPMI-1788 (B lymphocytes, normal cell line).
as §2

[2] = system: NALM6 C. G5 (B-cell acute lymphocytic leukemia, B-ALL); assay: CellTiter-Glo (CTG) cytotoxicity assay, NALM6 C. G5; details: Homo sapiens, NALM-6, 48 h, read-out: Growth inhibition 50% (GI50) NALM6 C. G5
Protocol: as §3, §2

U266 (multiple myeloma) = assay: CellTiter-Glo (CTG) cytotoxicity assay, U266; details: Homo sapiens, U-266, 48 h, read-out: Growth inhibition 50% (GI50) U266
Protocol: as §3, §2

[3] = system: RPMI-1788 (B lymphocytes, normal cell line); assay: CellTiter-Glo (CTG) cytotoxicity assay, RPMI-1788 normal cell line; details: 48 h, read-out: Growth inhibition 50% (GI50) RPMI-1788
Protocol: as §3, §2

HCT-15 (colon) = assay: Sulforhodamine B (SRB) cytotoxicity assay, HCT-15; details: Homo sapiens; HCT-15, SRB assay, 48 h; read-out: Growth inhibition 50% (GI50) HCT-15
Protocol: as §1, §2

[4] = system: Raji (Burkitt's lymphoma); assay: CellTiter-Glo (CTG) cytotoxicity assay, Raji; details: Homo sapiens, 48 h, read-out: Growth inhibition 50% (GI50) Raji
Protocol: as §3, §2

[5] = system: WSU-DLCL2 (diffuse large B-cell lymphoma, DLBCL); assay: CellTiter-Glo (CTG) cytotoxicity assay, WSU-DLCL2; details: Homo sapiens, WSUDLCL2, 48 h, read-out: Growth inhibition 50% (GI50) WSU-DLCL2
Protocol: as §3, §2

[6] = system: HL-60 (acute myelogenous leukemia, AML); assay: CellTiter-Glo (CTG) cytotoxicity assay, HL-60; details: Homo sapiens; HL-60, CTG assay, 48 h; read-out: Growth inhibition 50% (GI50) HL-60
Protocol: as §3, §2

NCI-H23 (lung) = assay: Sulforhodamine B (SRB) cytotoxicity assay, NCI-H23; details: Homo sapiens, 48 h, read-out: Growth inhibition 50% (GI50) NCI-H23
Protocol: as §1, §2

PC-3 (prostate) = assay: Sulforhodamine B (SRB) cytotoxicity assay, PC-3; details: PC-3, SRB assay, 48 h; read-out: Growth inhibition 50% (GI50) PC-3
Protocol: as §1, §2

NUGC-3 (stomach) = assay: Sulforhodamine B (SRB) cytotoxicity assay, NUGC-3; details: Homo sapiens; NUGC-3, SRB assay, 48 h; read-out: Growth inhibition 50% (GI50) NUGC-3
Protocol: as §1, §2

ACHN (renal) = assay: Sulforhodamine B (SRB) cytotoxicity assay, ACHN; details: Homo sapiens, 48 h, read-out: Growth inhibition 50% (GI50) ACHN
Protocol: as §1, §2

[7] = system: K562 (chronic myelogenous leukemia, CML); assay: CellTiter-Glo (CTG) cytotoxicity assay, K562; details: Homo sapiens, 48 h, read-out: Growth inhibition 50% (GI50) K562
Protocol: as §3, §2

[8] = system: MRC-9 (lung fibroblast, normal cell line); assay: Sulforhodamine B (SRB) cytotoxicity assay, MRC-9 normal cell line; details: MRC9, 48 h, read-out: Growth inhibition 50% (GI50) MRC-9
Protocol: as §1, §2

solid cancer cell lines = assay: SRB cytotoxicity assay, panel of solid cancer cell lines; details: six solid cancer cell lines or the normal cell line, 48 h, read-out: GI50 values against solid cancer cell lines (range over the panel)
Protocol: as §1
(§4) The cytotoxicity test was conducted with CTG luminescent cell viability and SRB assay according to the published procedures. […] The cell cultures were then treated with 100 µL of CellTiter-Glo Reagent (Promega, Madison, WI, USA) and kept for 10 min to acquire a luminescence signal. Luminescence measurements were performed with the GloMax-Multi Detection System (Promega, Madison, WI, USA). […] Absorbance was measured at 540 nm with a VersaMax microplate reader (Molecular Devices, Sunnyvale, CA, USA) and GI50 values were calculated by GraphPad Prism 4.0 (GraphPad, San Diego, CA, USA).

blood cancer cell lines = assay: CTG cytotoxicity assay, panel of blood cancer cell lines; details: 48 h, read-out: GI50 values against blood cancer cell lines (range over the panel)
Protocol: as §3, §4

SMILES: COc1cccc2c1C(=O)c1c(O)c3c(c(O)c1C2=O)C[C@@](O)(C(=O)CO)C[C@@H]3O[C@H]1C[C@H](N)[C@H](O)[C@H](C)O1 [Doxorubicin, reference compound]
- GI50 (MDA-MB-231 (breast)): 0.21 µM
- GI50 [1]: 0.035 µM
- GI50 [2]: 0.007 µM
- GI50 (U266 (multiple myeloma)): 0.112 µM
- GI50 [3]: 0.012 µM
- GI50 (HCT-15 (colon)): 0.305 µM
- GI50 [4]: 0.014 µM
- GI50 [5]: 0.008 µM
- GI50 [6]: 0.029 µM
- GI50 (NCI-H23 (lung)): 0.221 µM
- GI50 (PC-3 (prostate)): 0.106 µM
- GI50 (NUGC-3 (stomach)): 0.245 µM
- GI50 (ACHN (renal)): 0.222 µM
- GI50 [7]: 0.094 µM
- GI50 [8]: 0.314 µM

SMILES: C=C1C[C@@]23C[C@@H]1CC[C@]2(O)[C@@]1(C)CC[C@H](O)C(C)(C)[C@@H]1[C@H](O)C3 [compound 1, geliboluol A]
- GI50 (MDA-MB-231 (breast)): > 30 µM
- GI50 [1]: > 30 µM
- GI50 [2]: > 30 µM
- GI50 (U266 (multiple myeloma)): > 30 µM
- GI50 [3]: > 30 µM
- GI50 (HCT-15 (colon)): > 30 µM
- GI50 [4]: > 30 µM
- GI50 [5]: > 30 µM
- GI50 [6]: > 30 µM
- GI50 (NCI-H23 (lung)): > 30 µM
- GI50 (PC-3 (prostate)): > 30 µM
- GI50 (NUGC-3 (stomach)): > 30 µM
- GI50 (ACHN (renal)): > 30 µM
- GI50 [7]: > 30 µM
- GI50 [8]: > 30 µM

SMILES: C=C1C[C@@]23C[C@@H]1CC[C@]2(O)[C@@]1(C)[C@@H](O)CCC(C)(C)[C@@H]1[C@H](O)C3 [compound 2, geliboluol B]
- GI50 (MDA-MB-231 (breast)): > 30 µM
- GI50 [1]: > 30 µM
- GI50 [2]: > 30 µM
- GI50 (U266 (multiple myeloma)): > 30 µM
- GI50 [3]: > 30 µM
- GI50 (HCT-15 (colon)): > 30 µM
- GI50 [4]: > 30 µM
- GI50 [5]: > 30 µM
- GI50 [6]: > 30 µM
- GI50 (NCI-H23 (lung)): > 30 µM
- GI50 (PC-3 (prostate)): > 30 µM
- GI50 (NUGC-3 (stomach)): > 30 µM
- GI50 (ACHN (renal)): > 30 µM
- GI50 [7]: > 30 µM
- GI50 [8]: > 30 µM

SMILES: C=C1C[C@@]23C[C@@H]1CC[C@]2(O)[C@@]1(C)CCC[C@@](C)(CO)[C@@H]1[C@H](O)C3 [compound 3, geliboluol C]
- GI50 (MDA-MB-231 (breast)): > 30 µM
- GI50 [1]: > 30 µM
- GI50 [2]: > 30 µM
- GI50 (U266 (multiple myeloma)): > 30 µM
- GI50 [3]: > 30 µM
- GI50 (HCT-15 (colon)): > 30 µM
- GI50 [4]: > 30 µM
- GI50 [5]: > 30 µM
- GI50 [6]: > 30 µM
- GI50 (NCI-H23 (lung)): > 30 µM
- GI50 (PC-3 (prostate)): > 30 µM
- GI50 (NUGC-3 (stomach)): > 30 µM
- GI50 (ACHN (renal)): > 30 µM
- GI50 [7]: > 30 µM
- GI50 [8]: > 30 µM

SMILES: C=C1C2CCC3(O)C4(C)CCCC(C)(CO)C4C(O)CC3(C2)C1O (centres unmarked) [compound 4, geliboluol D]
- GI50 (MDA-MB-231 (breast)): 5.73 µM
- GI50 [1]: 8.51 µM
- GI50 [2]: 2.59 µM
- GI50 (U266 (multiple myeloma)): > 30 µM
- GI50 [3]: 4.52 µM
- GI50 (solid cancer cell lines): 4.34 to 7.23 µM
- GI50 (HCT-15 (colon)): 5.73 µM
- GI50 [4]: 2.73 µM
- GI50 [5]: 3.48 µM
- GI50 [6]: 11.2 µM
- GI50 (NCI-H23 (lung)): 5.13 µM
- GI50 (PC-3 (prostate)): 6.5 µM
- GI50 (NUGC-3 (stomach)): 4.34 µM
- GI50 (ACHN (renal)): 4.58 µM
- GI50 [7]: 19.6 µM
- GI50 (blood cancer cell lines): 2.59 to 19.6 µM
- GI50 [8]: 7.23 µM

SMILES: C=C1C[C@@]23C[C@@H]1CC[C@]2(O)[C@@]1(C)CCCC(C)(C)[C@@H]1[C@H](O)C3 [compound 5]
- GI50 (MDA-MB-231 (breast)): > 30 µM
- GI50 [1]: 11.1 µM
- GI50 [2]: 7.34 µM
- GI50 (U266 (multiple myeloma)): 22.5 µM
- GI50 [3]: 9.56 µM
- GI50 (HCT-15 (colon)): > 30 µM
- GI50 [4]: 4.58 µM
- GI50 [5]: 5.93 µM
- GI50 [6]: 16.4 µM
- GI50 (NCI-H23 (lung)): > 30 µM
- GI50 (PC-3 (prostate)): > 30 µM
- GI50 (NUGC-3 (stomach)): > 30 µM
- GI50 (ACHN (renal)): > 30 µM
- GI50 [7]: 11.9 µM
- GI50 [8]: > 30 µM
